Test results published in patent publication US20240246992A1, “MACROCYCLIC LRRK2 KINASE INHIBITORS” (LES LABORATOIRES SERVIER, priority 2021, published 2024).

Each compound was assayed against human recombinant LRRK2 protein (Homo sapiens, UniProt Q5S007) (assay: LRRK2 kinase activity assay (ADP-Glo, LRRKtide peptide)). Details: human recombinant LRRK2 wt, LRRKtide peptide and ATP, 1 h at 37° C.
Format: biochemical
Procedure, shortened: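 ADP-Glo luminescence read-out of a peptide assay: compound, ATP and LRRKtide substrate combined with recombinant human LRRK2 and incubated at 37 °C for 1 h. Ten-point data, N=2, curve-fitted to IC50.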

Chain of human recombinant LRRK2 protein (Q5S007 whole entry): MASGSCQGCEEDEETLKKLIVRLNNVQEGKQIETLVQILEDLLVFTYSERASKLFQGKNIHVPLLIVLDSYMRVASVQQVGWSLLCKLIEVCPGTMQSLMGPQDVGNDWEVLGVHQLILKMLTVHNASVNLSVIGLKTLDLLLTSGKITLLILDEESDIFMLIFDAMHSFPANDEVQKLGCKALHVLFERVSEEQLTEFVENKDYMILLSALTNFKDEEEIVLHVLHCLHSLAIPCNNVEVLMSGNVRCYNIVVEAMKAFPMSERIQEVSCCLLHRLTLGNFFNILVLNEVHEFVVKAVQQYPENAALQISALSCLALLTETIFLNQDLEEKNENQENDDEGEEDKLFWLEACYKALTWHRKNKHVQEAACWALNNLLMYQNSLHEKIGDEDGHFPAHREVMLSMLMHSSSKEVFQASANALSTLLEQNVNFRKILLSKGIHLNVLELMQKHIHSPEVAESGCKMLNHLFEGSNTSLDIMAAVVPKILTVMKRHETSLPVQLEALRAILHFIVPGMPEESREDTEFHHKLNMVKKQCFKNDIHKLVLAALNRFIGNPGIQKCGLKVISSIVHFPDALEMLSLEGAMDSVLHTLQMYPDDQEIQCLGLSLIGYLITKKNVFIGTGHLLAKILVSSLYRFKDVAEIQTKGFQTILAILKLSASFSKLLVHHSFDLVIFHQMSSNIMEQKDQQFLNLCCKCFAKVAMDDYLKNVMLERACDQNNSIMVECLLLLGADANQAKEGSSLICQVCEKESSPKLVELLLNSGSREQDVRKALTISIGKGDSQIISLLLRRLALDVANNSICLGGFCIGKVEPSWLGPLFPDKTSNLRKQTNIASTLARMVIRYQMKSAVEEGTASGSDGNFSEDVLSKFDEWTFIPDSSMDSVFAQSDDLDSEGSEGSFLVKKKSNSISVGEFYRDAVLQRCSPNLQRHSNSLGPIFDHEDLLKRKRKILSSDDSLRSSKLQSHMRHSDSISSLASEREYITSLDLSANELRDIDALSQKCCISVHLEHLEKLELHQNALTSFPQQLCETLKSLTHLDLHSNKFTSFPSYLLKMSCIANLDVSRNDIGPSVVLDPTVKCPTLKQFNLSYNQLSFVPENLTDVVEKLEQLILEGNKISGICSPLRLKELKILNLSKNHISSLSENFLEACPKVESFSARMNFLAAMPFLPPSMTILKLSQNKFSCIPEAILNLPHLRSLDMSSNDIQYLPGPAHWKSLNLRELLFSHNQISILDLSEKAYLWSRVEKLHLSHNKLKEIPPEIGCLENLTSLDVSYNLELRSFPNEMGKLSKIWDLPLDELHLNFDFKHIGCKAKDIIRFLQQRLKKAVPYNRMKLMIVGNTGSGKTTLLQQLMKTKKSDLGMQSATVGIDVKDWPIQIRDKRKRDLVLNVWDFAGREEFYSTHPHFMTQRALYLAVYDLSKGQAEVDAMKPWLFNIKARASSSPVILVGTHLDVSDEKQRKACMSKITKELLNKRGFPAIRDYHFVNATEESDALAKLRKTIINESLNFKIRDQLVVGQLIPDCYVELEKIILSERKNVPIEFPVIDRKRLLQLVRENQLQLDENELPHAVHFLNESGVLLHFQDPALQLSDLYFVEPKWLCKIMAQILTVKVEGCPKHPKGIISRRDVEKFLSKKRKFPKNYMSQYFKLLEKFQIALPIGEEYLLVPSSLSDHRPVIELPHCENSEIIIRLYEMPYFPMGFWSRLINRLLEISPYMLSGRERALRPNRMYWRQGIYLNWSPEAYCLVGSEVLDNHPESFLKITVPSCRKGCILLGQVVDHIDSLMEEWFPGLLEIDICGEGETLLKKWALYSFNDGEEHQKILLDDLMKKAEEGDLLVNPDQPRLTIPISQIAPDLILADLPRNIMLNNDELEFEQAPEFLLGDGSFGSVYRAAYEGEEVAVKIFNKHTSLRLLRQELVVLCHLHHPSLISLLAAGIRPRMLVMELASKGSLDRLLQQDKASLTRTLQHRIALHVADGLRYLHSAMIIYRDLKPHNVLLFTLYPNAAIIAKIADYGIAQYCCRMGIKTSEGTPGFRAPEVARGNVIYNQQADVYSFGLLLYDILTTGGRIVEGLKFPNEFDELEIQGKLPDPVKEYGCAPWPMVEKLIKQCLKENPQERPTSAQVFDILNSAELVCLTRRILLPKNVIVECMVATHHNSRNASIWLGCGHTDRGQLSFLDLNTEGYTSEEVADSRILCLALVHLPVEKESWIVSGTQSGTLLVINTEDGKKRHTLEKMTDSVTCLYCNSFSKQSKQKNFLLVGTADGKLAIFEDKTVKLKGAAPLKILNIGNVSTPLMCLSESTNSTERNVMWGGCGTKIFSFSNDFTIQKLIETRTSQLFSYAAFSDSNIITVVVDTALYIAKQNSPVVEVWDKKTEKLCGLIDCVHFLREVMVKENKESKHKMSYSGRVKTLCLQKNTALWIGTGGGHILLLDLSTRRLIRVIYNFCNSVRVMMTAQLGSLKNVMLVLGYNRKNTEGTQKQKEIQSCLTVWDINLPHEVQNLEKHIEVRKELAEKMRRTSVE

SMILES | IC50 [nM]
C[C@@H]1COCCOCC(F)n2cc(cn2)-c2n[nH]c3ccc(cc23)O1 (single isomer, unassigned) [Example 105, (6R*,13R)-6-fluoro-13-methyl-8,11,14-trioxa-4,5,19,20-tetraazatetracyclo[13.5.2.1^2,5.0^18,21]tricosa-1(20),2(23),3, 15(22),16,18(21)-hexaene] | < 10
CN1CCOCCOc2cc(cc(N3CCOCC3)c2)-c2n[nH]c3ccc(cc23)C1 [Example 91, 13-methyl-4-(morpholin-4-yl)-7,10-dioxa-13,19,20-triazatetracyclo [13.5.2.1^2,6.0^18,21]tricosa-1(20),2,4,6(23),15,17,21-heptaene] | < 100
Cc1cc2nc(n1)OCCCOC[C@H](C)Oc1ccc3[nH]nc-2c3c1 [Example 29, (13S)-4,13-dimethyl-7,11,14-trioxa-5,19,20,23-tetraazatetracyclo[13.5.2.1^2,6.0^18,21]tricosa-1(20),2(23),3,5,15(22),16,18(21)-heptaene] | < 10
O=C1COc2cc(C3=CCOCC3)cc(c2)-c2n[nH]c3ccc(cc23)OCCCN1 [Example 208, 4-(3,6-dihydro-2H-pyran-4-yl)-7,14-dioxa-10,19,20-triazatetracyclo[13.5.2.1^2,6.0^18,21]tricosa-1(20),2(23),3,5,15,17,21-heptaen-9-one] | < 10
FC1(F)COCCOCCn2cc(cn2)-c2n[nH]c3ccc(cc23)O1 [Example 78, 13,13-difluoro-8,11,14-trioxa-4,5,19,20-tetraazatetra cyclo[13.5.2.1^2,5.0^18,21]tricosa-1(20),2(23),3, 15(22),16,18(21)-hexaene] | < 10
C[C@H]1COCC[C@H](C)Oc2ccc3[nH]nc(c3c2)-c2cnn(c2)C1 [Example 52, (7R,12S)-7,12-dimethyl-9,13-dioxa-4,5,18,19-tetraazatetracyclo[12.5.2.1^2,5.0^17,20]docosa-1(19),2(22),3,14(21),15,17(20)-hexaene] | < 10
C[C@@H]1CCOCC(F)(F)Cn2cc(cn2)-c2n[nH]c3ccc(cc23)O1 [Example 120, (12R)-7,7-difluoro-12-methyl-9,13-dioxa-4,5,18,19-tetraazatetracyclo [12.5.2.1^2,5.0^17,20]docosa-1(19),2(22),3,14(21),15,17(20)-hexaene] | < 10
c1cc2[nH]nc3c2cc1OCCCOCCCCn1cc-3cn1 [Example 6, 10,14-dioxa-4,5,19,20-tetraazatetracyclo[13.5.2.1^2,5.0^18,21]tricosa-1(20),2(23), 3,15(22),16,18(21)-hexaene] | < 10
C[C@@H]1OCCOCCn2cc(cn2)-c2n[nH]c3ccc(cc23)O[C@H]1C [Example 114, (12S,13S)-12,13-dimethyl-8,11,14-trioxa-4,5,19,20-tetraazatetracyclo [13.5.2.1^2,5.0^18,21]tricosa-1(20),2(23),3,15(22),16,18(21)-hexaene] | < 10
C[C@@H]1CCOCCCn2cc(cn2)-c2n[nH]c3cnc(cc23)O1 [Example 245, (12R)-12-methyl-9,13-dioxa-4,5,15,18,19-pentaaza tetracyclo[12.5.2.1^2,5.0^17,20]docosa-1(19),2(22),3,14(21),15,17(20)-hexaene] | < 10
c1cc2cc(c1)-c1n[nH]c3ccc(cc13)OCCCNCCO2 [Example 135, 7,14-dioxa-10,19,20-triazatetracyclo[13.5.2.1^2,6.0^18,21]tricosa-1(20),2(23),3,5,15(22),16,18(21)-heptaene] | < 10
C[C@H]1CCOCCOCc2nc(cs2)-c2n[nH]c3ccc(cc23)O1 [Example 62, (13S)-13-methyl-7,10,14-trioxa-4-thia-19,20,23-triazatetracyclo[13.5.2.1^2,5.0^18,21]tricosa-1(20),2,5(23),15(22),16,18(21)-hexaene] | < 100
C[C@H]1COCCCOc2nc(cc(N3CCCC3)n2)-c2n[nH]c3ccc(cc23)O1 [Example 19, (13S)-13-methyl-4-(pyrrolidin-1-yl)-7,11,14-trioxa-5,19,20,23-tetraazatetra cyclo[13.5.2.1^2,6.0^18,21]tricosa-1(20),2(23),3,5,15(22),16,18(21)heptaene] | < 10
C[C@@H]1CCOCC(F)(F)COc2ccc3[nH]nc(c3c2)-c2cnn1c2 [Example 109, (6R)-11,11-difluoro-6-methyl-9,13-dioxa-4,5,18,19-tetraazatetracyclo [12.5.2.1^2,5.0^17,20]docosa-1(19),2(22),3,14(21),15,17(20)-hexaene] | < 100
C[C@@H]1CCOCC[C@H](C)n2ncc(n2)-c2n[nH]c3ccc(cc23)O1 [Example 103, (6S,12R)-6,12-dimethyl-9,13-dioxa-4,5,18,19,22-pentaazatetracyclo[12.5.2.1^2,5.0^17,20]docosa-1(19),2(22),3,14(21),15,17(20)-hexaene] | < 10
C[C@@H]1CCOCCOCCn2ncc(n2)-c2n[nH]c3ccc(cc23)O1 [Example 133, (14R)-14-methyl-8,11,15-trioxa-4,5,20,21,24-pentaazatetracyclo[14.5.2.1^2,5.0^19,22]tetracosa-1(21),2(24),3,16(23),17,19(22)-hexaene] | < 100
CC1Oc2cc(cc(N3CCOCC3)c2)-c2n[nH]c3ccc(cc23)OCCCNC1=O (centres unmarked) [Example 176, 8-methyl-4-(morpholin-4-yl)-7,14-dioxa-10,19,20-triazatetracyclo[13.5.2.1^2,6.0^18,21]tricosa-1(20),2,4,6(23),15,17,21-heptaen-9-one] | < 10
CC1CCNCCOc2cncc(c2)-c2n[nH]c3ccc(cc23)O1 (centres unmarked) [Example 159, 13-methyl-7,14-dioxa-4,10,19,20-tetraazatetracyclo[13.5.2.1^2,6.0^18,21]tricosa-1(20),2,4,6(23),15,17,21-heptaene] | < 10
CC1CCOc2ccc3[nH]nc(c3c2)-c2cccc(n2)OCCN1 (centres unmarked) [Example 240, 11-methyl-7,14-dioxa-10,19,20,23-tetraazatetracyclo[13.5.2.1^2,6.0^18,21]tricosa-1(20),2,4,6(23),15,17,21-heptaene] | < 10
C[C@@H]1CCOC[C@@H](C)Oc2ccc3[nH]nc(c3c2)-c2cncc(c2)O1 [Example 17, (8R,13R)-8,13-dimethyl-7,11,14-trioxa-4,19,20-triazatetracyclo[13.5.2.1^2,6. 0^18,21]tricosa-1(20),2(23),3,5,15(22),16,18(21)-heptaene] | < 10
CC1CNCCCOc2ccc3[nH]nc(c3c2)-c2cc(cc(N3CCOCC3)c2)O1 (single isomer, unassigned) [Example 177, (8R) or (8S)-8-methyl-4-(morpholin-4-yl)-7,14-dioxa-10,19,20-triazatetracyclo[13.5.2.1^2,6.0^18,21]tricosa-1(20),2,4,6(23),15,17,21-heptaene] | < 10
C[C@@H]1CCOCCCc2ncn(n2)-c2n[nH]c3ccc(cc23)O1 [Example 125, (12R)-12-methyl-9,13-dioxa-2,4,18,19,22-pentaazatetracyclo[12.5.2.1^2,5.0^17,20]docosa-1(19),3,5(22),14(21),15,17(20)-hexaene] | < 10
C[C@H]1CCOC[C@H](C)Oc2cncc(c2)-c2n[nH]c3ccc(cc23)O1 [Example 20, (8S,13S)-8,13-dimethyl-7,10,14-trioxa-4,19,20-triazatetracyclo[13.5.2.1^2,6. 0^18,21]tricosa-1(20),2(23),3,5,15(22),16,18(21)-heptaene] | < 100
